Laboratory results taken from US5356921A, “Imidazolylphenol compounds, pharmaceutical compositions containing them, and processes for preparing such compounds and compositions” (Gruenenthal GmbH, priority 1992, dated 1994).

Columns and labels:
5-lipoxygenase [1] = target: T1, 5-lipoxygenase (Rattus norvegicus, UniProt P12527); assay: Inhibition of cell-free 5-lipoxygenase from RBL-1-cells; format: biochemical; details: 10,000×g supernatant of RBL cells; polarographic; arachidonic acid 75 μM
T1 construct: endogenous in cells; host or cells: RBL-1 cells (rat basophilic leukemia), intact
T1 sequence (P12527 1-673): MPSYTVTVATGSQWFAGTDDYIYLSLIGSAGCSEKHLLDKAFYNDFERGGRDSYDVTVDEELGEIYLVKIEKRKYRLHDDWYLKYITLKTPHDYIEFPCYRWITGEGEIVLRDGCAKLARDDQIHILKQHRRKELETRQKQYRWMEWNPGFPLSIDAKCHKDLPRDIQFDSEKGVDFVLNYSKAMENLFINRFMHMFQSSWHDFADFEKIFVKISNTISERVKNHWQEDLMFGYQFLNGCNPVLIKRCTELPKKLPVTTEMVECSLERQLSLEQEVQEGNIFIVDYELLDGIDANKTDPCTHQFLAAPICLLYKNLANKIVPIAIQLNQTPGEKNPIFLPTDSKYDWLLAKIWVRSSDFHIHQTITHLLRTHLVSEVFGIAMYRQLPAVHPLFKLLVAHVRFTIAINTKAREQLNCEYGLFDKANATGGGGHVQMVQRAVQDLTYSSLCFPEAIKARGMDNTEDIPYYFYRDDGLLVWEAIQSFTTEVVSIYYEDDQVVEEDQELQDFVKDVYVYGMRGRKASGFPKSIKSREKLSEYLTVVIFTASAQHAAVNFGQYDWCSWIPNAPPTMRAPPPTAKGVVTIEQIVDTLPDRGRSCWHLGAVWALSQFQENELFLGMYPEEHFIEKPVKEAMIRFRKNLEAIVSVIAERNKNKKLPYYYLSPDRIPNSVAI
Experimental: Cell-free 5-lipoxygenase was polarographically measured from 10,000×gsupernatant of homogenized rat basophilic leucemia cells [M. Haurand and L. Flohe in Biol. Chem. Hoppe-Seyler 369, 133-142 (1988)]. After preincubation of the 10,000×g supernatant with arachidonic acid (75 μM), ATP (adenosine triphosphate; 4 μM), reduced glutathione (4 mM), and either a compound according to the invention (0.1 to 100 μM) or a solvent (ethanol and/or dimethyl sulfoxide) at 35° C. for 5 minutes, the lipoxygenase reaction was initiated by addition of calcium chloride (3 mM) and recorded simultaneously.
The activity of 5-lipoxygenase was determined from the difference of the pO2 -decrease before and after addition of calcium chloride. The evaluation included the initial rate of the reaction after the lag-phase as well as the duration of the lag-phase. In a concentration range of from 5 to 10 μM the test substances induced lag-phases of 15 seconds.

5-lipoxygenase [2] = assay: 5-lipoxygenase inhibition in rat blood after oral administration (ex vivo iLTB4-formation); details: male Wistar rats, 21.5 mg/kg oral, one hour after administration, A 23 187 15 μg/ml
Experimental: The bioavailability of the compounds of formula I as 5-lipoxygenase inhibitors was characterized by means of an ex vivo biochemical assessment method described by Tateson et al. in Brit. J. Pharmacol. 94, 528 (1988). A compound of formula I was orally administered to male rats (Wistar strain) in a dose of 21.5 mg/kg. One hour after administration the rats after lethal CO2 -narcosis were bled by heart puncture with added heparin as an anticoagulant. Aliquots of the whole blood were incubated at 37° C. for 30 minutes in a water bath with calcium ionophore A 23 187 at an end concentration of 15 μg/ml. At the end of the incubation the samples were centrifuged, and the concentration of immunoreactive LTB4 (iLTB4) in aliquots of […] percent inhibition of ex vivo iLTB4 -formation in whole blood of rats treated with a compound according to the invention, rats orally treated with an appropriate vehicle solution were included in all experiments, and aliquots of their blood were run in parallel and were processed in the same way as described. The average iLTB4 -content of the plasma of the vehicle treated rats served as the 100% value. The activity in percent of the ex vivo iLTB4 -formation after oral administration of a compound according to the invention was calculated by dividing the average value of the iLTB4 -content in ng iLTB4 /ml of the group treated with a compound according to the invention by the average value of the iLTB4 -contents in ng iLTB4 /ml of the vehicle treated group and subsequent multiplication by the factor 100. The respective inhibition in percent was calculated by subtracting the activity in percent from 100.

5-lipoxygenase [3] = target: T1, 5-lipoxygenase; assay: Inhibition of 5-lipoxygenase in RBL-1-cells; format: cell-based; details: 20 μM [14C]-arachidonic acid, 20 μM A 23 187
Experimental: To determine the inhibition of 5-lipoxygenase rat basophilic leukemia cells (RBL-1-cells) were cultured in vitro, harvested by centrifugation, washed with 50 mM potassium phosphate buffer of pH 7.4, and then suspended in this buffer at 1×10^7 cells/mi. To 1 ml each of this suspension there was added indomethacin (10 μM) and calcium chloride (2 mM), and then the mixture was incubated in the absence or presence of a compound according to the invention in a concentration range of from 0.1 μM to 100 μM for 3 minutes and thereafter with 20 μM of [^14 C]-arachidonic acid and 20 μM of the calcium ionophore A 23 187 for 10 minutes. The reaction was stopped by adding 20 μl of glacial acetic acid, and then the mixture was extracted with ethyl acetate to isolate the metabolites of arachidonic acid formed by the enzymatic action of 5-lipoxygenase. These were separated by thin layer chromatography using a solvent mixture known to be suitable for lipoxygenase products [c.f. Jakschik et al., Biochem. Biophys. Res. Commun. 102, 624 (1981)].
The distribution of the radioactivity among the various metabolites of arachidonic acid was measured using a TLC Linear Analyzer. By correlating the percentages of the amount of the products formed under the action of 5lipoxygenase (5-HETE, isomers of LTB4) in the absence as well as in the presence of different concentrations of compounds according to the invention, the IC50 -values, i.e. the concentrations which cause 50% inhibition of 5-lipoxygenase were determined graphically from semilogarithmic diagrams.

thromboxane synthase = target: T2, thromboxane synthase (Homo sapiens, UniProt P24557); assay: Inhibition of thromboxane synthase (human thrombocytes); format: cell-based; details: for IC50: human thrombocytes, arachidonic acid 3.5 μM, read-out: IC50-Value, inhibition of thromboxane synthase (TXB2 formation); for inhibitory action on thromboxane synthase: in words
T2 construct: human thrombocytes were isolated from platelet-rich plasma; endogenous in cells; host or cells: human thrombocytes (platelets), intact
T2 sequence (P24557 1-533): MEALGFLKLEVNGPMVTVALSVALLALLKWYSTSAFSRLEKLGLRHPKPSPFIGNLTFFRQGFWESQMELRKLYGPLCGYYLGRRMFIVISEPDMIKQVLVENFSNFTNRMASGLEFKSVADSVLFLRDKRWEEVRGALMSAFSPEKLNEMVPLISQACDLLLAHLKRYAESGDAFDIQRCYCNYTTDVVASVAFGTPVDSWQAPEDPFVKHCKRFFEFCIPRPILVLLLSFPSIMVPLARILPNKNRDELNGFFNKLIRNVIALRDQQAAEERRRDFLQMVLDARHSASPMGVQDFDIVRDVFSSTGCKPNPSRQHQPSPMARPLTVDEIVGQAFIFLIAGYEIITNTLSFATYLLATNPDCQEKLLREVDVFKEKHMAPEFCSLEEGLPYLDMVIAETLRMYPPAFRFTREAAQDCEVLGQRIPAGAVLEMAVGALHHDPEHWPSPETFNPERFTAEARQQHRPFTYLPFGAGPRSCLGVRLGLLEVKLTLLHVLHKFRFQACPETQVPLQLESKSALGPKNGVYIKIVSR
Experimental: After addition of prostacyclin, human thrombocytes were isolated from platelet-rich plasma and suspended in Tyrode-Hepes buffer of pH 7.4 at 2×10^8 cells/ml. One ml aliquots of cells were incubated either with a compound according to the invention (0.1 to 100 μM) or a solvent (ethanol and/or dimethyl sulfoxide) at 37° C. for 3 minutes and thereafter with radioactively labelled arachidonic acid (3.5 μM) for 5 minutes. The reaction was stopped and the metabolites of arachidonic acid were extracted by adding methanol, chloroform and formic acid. After evaporation of the chloroform-containing layer to dryness under nitrogen, the residue obtained was resuspended in 50 μl chloroform and analyzed by thin layer chromatography. The distribution of the radioactivity of the different metabolites of arachidonic acid was measured using a TLC linear analyzer.

guinea pigs = assay: Allergen-induced bronchoconstriction in guinea pigs (Konzett-Roessler); format: in vivo, guinea pig; details: 60 minutes before ovalbumin
Experimental: The antiasthmatic effect of compounds according to the invention was tested in anesthetized and ventilated guinea pigs. To induce an asthmatic reaction, the animals were passively sensitized by a single intraperitoneal injection of anti-ovalbumin serum. After 48 hours an asthmatic reaction was elicited by intravenous challenge with 0.2 mg/kg of ovalbumin. The immediately resulting bronchoconstriction was measured as an increase in intratracheal pressure. Effects caused by histamine, serotonin and sympathic counterreaction were eliminated by intravenous pretreatment with 2.15 mg/kg of mepyramine, 46.4 μg/kg of propranolol, 4.64 mg/kg of atropine, and 1 mg/kg of methysergide, all administered 5 minutes before challenge. Compounds according to the invention were orally administered 60 minutes before the administration of ovalbumin. The following ED40-values for the inhibition of the bronchoconstriction elicited by ovalbumin, i.e. the effective doses causing a 40% average inhibition of the bronchoconstriction, were determined: […]

5-lipoxygenase [4] = details: in words, no test shown; cited from earlier work

Row | Structure (SMILES) | Inhibition of ex vivo iLTB4-formation in whole blood (5-lipoxygenase [2]) | IC50 (5-lipoxygenase [3]) | IC50 (thromboxane synthase) | inhibitory action on thromboxane synthase (thromboxane synthase) | also measured
1 | NC(=O)N(O)Cc1ccc(OCCn2ccnc2)cc1 [Comparison, N-hydroxy-N-[4-[2-(1H-imidazol-1-yl)ethoxy]phenylmethyl]urea, reference compound] | 42% | > 100 µM | 4 µM | – | IC50 (5-lipoxygenase [1]): > 100 µM
2 | NC(=O)N(O)Cc1ccc(Oc2ccc(-n3ccnc3)cc2)cc1 [Example 2, Imidazolium Chloride of N-hydroxy-N-[4-[4-(1H-imidazol-1-yl)phenoxy]phenylmethyl]urea] | – | 5 µM | – | – | Inhibition of ex vivo iLTB4-formation in whole blood (5-lipoxygenase [2]; 21.5 mg/kg): 95%; ED50-Value, inhibition of the bronchoconstriction elicited by ovalbumin (guinea pigs; oral, ED40): 5.1 mg/kg
3 | NC(=O)N(O)Cc1ccc(Oc2ccc(-n3ccnc3)cc2)s1 [Example 4, N-hydroxy-N-[5-[4-(1H-imidazol-1-yl)phenoxy]thien-2-yl-methyl]urea] | 93% | 3 µM | – | – | ED40 (guinea pigs; Cavia porcellus, po, 1 h, read-out: ED40-Value, inhibition of the bronchoconstriction elicited by ovalbumin): 6.3 mg/kg
4 | NC(=O)N(O)Cc1cccc(Oc2ccc(-n3ccnc3)cc2)c1 [Example 5, N-hydroxy-N-[3-[4-(1H-imidazol-1-yl)phenoxy]phenylmethyl]urea] | – | 6 µM | 2.5 µM | same inhibitory potency as the hydrochloride of the imidazolylethoxybenzoic acid UK 37 248 | IC50 (5-lipoxygenase [1]): 2 µM
5 | NC(=O)N(O)Cc1ccc(Oc2ccc(-n3ccnc3)cc2)o1 [Example 6, N-hydroxy-N-[5-[4-(1H-imidazol-1-yl)phenoxy]furan-2-yl-methyl]urea] | 84% | – | – | – | –
6 | NC(=O)N(O)Cc1ccc(Oc2cccc(-n3ccnc3)c2)cc1 [Example 10, N-hydroxy-N-[4-[3-(1H-imidazol-1-yl)phenoxy]phenylmethyl]urea] | – | 2 µM | – | – | –
7 | Cl.O=C(O)c1ccc(OCCn2ccnc2)cc1 [UK 37 248, 4-[2-(1H-imidazol-1-yl)-ethoxy]benzoic acid hydrochloride, reference compound] | – | – | – | inhibits the activity of thromboxane synthase | inhibits the activity of 5-lipoxygenase (5-lipoxygenase [4]): not the activity of 5-lipoxygenase
8 | CC(c1cc2ccccc2s1)N(O)C(N)=O (centres unmarked) [Zileuton (A 64 077), reference compound] | – | – | > 100 µM | did not exert an inhibitory action on thromboxane synthase | –
